Measured values taken from ChEMBL document CHEMBL4725308, “MK-5204: An orally active β-1,3-glucan synthesis inhibitor” (Bioorg Med Chem Lett, 2020).
≈ marks a conversion by molar mass, not a printed value.

How the values were obtained:
[1] = Inhibition of beta-1,3-glucan synthase in Candida albicans MY1055 microsomal membrane using UDP-[3H]-glucose as substrate incubated for 2 hrs in presence of UTP by radioactivity-based assay; assay type: cell membranes
Candida albicans [2] = test: Antifungal activity against Candida albicans MY1055 assessed as fungal growth inhibition measured after 24 hrs by liquid microdilution method; assay type: functional
Aspergillus fumigatus [3] = test: Antifungal activity against Aspergillus fumigatus MF5668 assessed as fungal growth inhibition measured after 24 hrs by liquid microdilution method; assay type: functional; conditions: read-out: MEC
[4] = Oral bioavailability in mouse; assay type: ADME, organism-based; conditions: in vivo
Candida albicans [5] = test: Antifungal activity against Candida albicans MY1055 infected in DBA/2 mouse model assessed as log change in colony forming units in kidney at 6.5 mg/kg, po bid for 2 days and measured after 4 days by TOKA; assay type: functional; conditions: time 2 day
Candida albicans [6] = test: Antifungal activity against Candida albicans MY1055 infected in DBA mouse model assessed as log change in colony forming units in kidney at 12.5 mg/kg, po bid for 2 days and measured after 4 days by TOKA; assay type: functional; conditions: time 2 day
Candida albicans [7] = test: Antifungal activity against Candida albicans MY1055 infected in DBA/2 mouse model assessed as log change in colony forming units in kidney at 25 mg/kg, po bid for 2 days and measured after 4 days by TOKA; assay type: functional; conditions: time 2 day
Candida albicans [8] = test: Antifungal activity against Candida albicans MY1055 assessed as fungal growth inhibition measured after 24 hrs in presence of mouse serum by liquid microdilution method; assay type: functional
Nakaseomyces glabratus = test: Antifungal activity against Candida glabrata MY1381 assessed as fungal growth inhibition; assay type: functional
Pichia kudriavzevii = test: Antifungal activity against Candida krusei ATCC 6258 assessed as fungal growth inhibition; assay type: functional
Candida tropicalis = test: Antifungal activity against Candida tropicalis MY1012 assessed as fungal growth inhibition; assay type: functional
Clavispora lusitaniae = test: Antifungal activity against Clavispora lusitaniae MY1396 assessed as fungal growth inhibition; assay type: functional
Candida parapsilosis = test: Antifungal activity against Candida parapsilosis ATCC 22019 assessed as fungal growth inhibition; assay type: functional; conditions: Lodderomyces parapsilosis
[9] = Clearance in mouse; assay type: ADME, organism-based; conditions: in vivo
[10] = Half lie in mouse; assay type: ADME, organism-based; conditions: in vivo
[11] = Clearance in rat; assay type: ADME; conditions: in vivo
[12] = Half life in rat; assay type: ADME; conditions: in vivo
[13] = Oral bioavailability in rat; assay type: ADME, organism-based; conditions: in vivo
[14] = Clearance in dog; assay type: ADME, Canis lupus familiaris; conditions: in vivo
[15] = Half life in dog; assay type: ADME, Canis lupus familiaris; conditions: in vivo
[16] = Oral bioavailability in dog; assay type: ADME, organism-based, Canis lupus familiaris; conditions: in vivo
[17] = Clearance in rhesus monkey; assay type: ADME, Macaca mulatta; conditions: in vivo
[18] = Half life in rhesus monkey; assay type: ADME, Macaca mulatta; conditions: in vivo
[19] = Oral bioavailability in rhesus monkey; assay type: ADME, organism-based, Macaca mulatta; conditions: in vivo
Candida albicans [20] = test: Antifungal activity against Candida albicans MY1055 infected in DBA/2N mouse model assessed as mouse survival at 6.5 mg/kg, po bid for 7 days and measured post-last dose by TOKA relative to control; assay type: functional; conditions: 168 h, time 7 day
Candida albicans [21] = test: Antifungal activity against Candida albicans MY1055 infected in DBA/2N mouse model assessed as mouse survival at 12.5 mg/kg, po bid for 7 days and measured post-last dose by TOKA relative to control; assay type: functional; conditions: 168 h, time 7 day
Candida albicans [22] = test: Antifungal activity against Candida albicans MY1055 infected in DBA/2N mouse model assessed as mouse survival at 25 mg/kg, po bid for 7 days and measured post-last dose by TOKA relative to control; assay type: functional; conditions: 168 h, time 7 day
Candida albicans [23] = test: Antifungal activity against Candida albicans MY1055 infected in DBA/2N mouse model assessed as mouse survival at 12.5 mg/kg, ip bid for 7 days and measured post-last dose by TOKA relative to control; assay type: functional; conditions: 168 h, time 7 day
Candida albicans [24] = test: Antifungal activity against Candida albicans MY1055 infected in DBA/2N mouse model administered for 7 days by TOKA; assay type: functional; conditions: MY1055, 168 h, time 7 day
Aspergillus fumigatus [25] = test: Antifungal activity against Aspergillus fumigatus MF5668 infected in DBA/2N mouse assessed as mouse survival at 12.5 mg/kg, ip bid administered for 7 days starting from 30 mins post infection and measured up to 21 days relative to control; assay type: functional; conditions: 168 h, time 7 day
Aspergillus fumigatus [26] = test: Antifungal activity against Aspergillus fumigatus MF5668 infected in DBA/2N mouse assessed as mouse survival at 6.25 mg/kg, ip bid administered for 7 days starting from 30 mins post infection and measured up to 21 days relative to control; assay type: functional; conditions: 168 h, time 7 day
Aspergillus fumigatus [27] = test: Antifungal activity against Aspergillus fumigatus MF5668 infected in DBA/2N mouse assessed as mouse survival at 3.125 mg/kg, ip bid administered for 7 days starting from 30 mins post infection and measured up to 21 days relative to control; assay type: functional; conditions: 168 h, time 7 day
Aspergillus fumigatus [28] = test: Antifungal activity against Aspergillus fumigatus MF5668 infected in DBA/2N mouse assessed as mouse survival at 1.56 mg/kg, ip bid administered for 7 days starting from 30 mins post infection and measured up to 21 days relative to control; assay type: functional; conditions: 168 h, time 7 day
Aspergillus fumigatus [29] = test: Antifungal activity against Aspergillus fumigatus MF5668 infected in DBA/2N mouse assessed as mean survival days at 12.5 mg/kg, ip bid administered for 7 days starting from 30 mins post infection and measured up to 21 days relative to control; assay type: functional; conditions: time 7 day
Aspergillus fumigatus [30] = test: Antifungal activity against Aspergillus fumigatus MF5668 infected in DBA/2N mouse assessed as mean survival days at 6.25 mg/kg, ip bid administered for 7 days starting from 30 mins post infection and measured up to 21 days relative to control; assay type: functional; conditions: time 7 day
Aspergillus fumigatus [31] = test: Antifungal activity against Aspergillus fumigatus MF5668 infected in DBA/2N mouse assessed as mean survival days at 3.125 mg/kg, ip bid administered for 7 days starting from 30 mins post infection and measured up to 21 days relative to control; assay type: functional; conditions: time 7 day
Aspergillus fumigatus [32] = test: Antifungal activity against Aspergillus fumigatus MF5668 infected in DBA/2N mouse assessed as mean survival days at 1.56 mg/kg, ip bid administered for 7 days starting from 30 mins post infection and measured up to 21 days relative to control; assay type: functional; conditions: time 7 day

SMILES: CCCN[C@@](C)(CO[C@H]1[C@H](n2ncnc2C(N)=O)C[C@@]23COC[C@@]1(C)[C@@H]2CC[C@H]1C3=CC[C@@]2(C)[C@H](C(=O)O)[C@@](C)([C@H](C)C(C)C)CC[C@]12C)C(C)C
- IC50 [1]: 0.015 µg/mL
- MIC (Candida albicans [2]): 0.5 µg/mL (≈ 0.691 µM)
- minimal effective concentration (Aspergillus fumigatus [3]): < 0.03 µg/mL
- bioavailability [4]: 19%
- Activity (Candida albicans [5]): -0.7 log CFU
- Activity (Candida albicans [6]): -0.8 log CFU
- Activity (Candida albicans [7]): -1.9 log CFU
- MIC (Candida albicans [8]): 32 µg/mL

SMILES: CC(C)[C@@H](C)[C@@]1(C)CC[C@]2(C)[C@H]3CC[C@@H]4[C@@]5(COC[C@]4(C)[C@@H](OC[C@@](C)(C(C)C)N(C)C)[C@H](n4ncnc4C(N)=O)C5)C3=CC[C@@]2(C)[C@@H]1C(=O)O
- IC50 [1]: 0.015 µg/mL
- MIC (Candida albicans [2]): 0.5 µg/mL (≈ 0.704 µM)
- minimal effective concentration (Aspergillus fumigatus [3]): < 0.03 µg/mL
- bioavailability [4]: 21%
- Activity (Candida albicans [5]): -0.3 log CFU
- Activity (Candida albicans [6]): -1.4 log CFU
- Activity (Candida albicans [7]): -1.8 log CFU
- MIC (Candida albicans [8]): 16 µg/mL

SMILES: CCN[C@@](C)(CO[C@H]1[C@H](n2ncnc2C(N)=O)C[C@@]23COC[C@@]1(C)[C@@H]2CC[C@H]1C3=CC[C@@]2(C)[C@H](C(=O)O)[C@@](C)([C@H](C)C(C)C)CC[C@]12C)C(C)C
- IC50 [1]: 0.011 µg/mL
- MIC (Candida albicans [2]): 0.25 µg/mL (≈ 0.352 µM)
- minimal effective concentration (Aspergillus fumigatus [3]): < 0.03 µg/mL
- bioavailability [4]: 17%
- Activity (Candida albicans [5]): -1.1 log CFU
- Activity (Candida albicans [6]): -1.1 log CFU
- Activity (Candida albicans [7]): -1.8 log CFU
- MIC (Candida albicans [8]): 16 µg/mL

SMILES: CC(C)[C@@H](C)[C@@]1(C)CC[C@]2(C)[C@H]3CC[C@@H]4[C@@]5(COC[C@]4(C)[C@@H](OC[C@H](N)C(C)(C)C)[C@H](n4ncnc4C(N)=O)C5)C3=CC[C@@]2(C)[C@@H]1C(=O)O
- IC50 [1]: 0.008 µg/mL
- MIC (Candida albicans [2]): 0.25 µg/mL (≈ 0.367 µM)
- minimal effective concentration (Aspergillus fumigatus [3]): < 0.03 µg/mL
- bioavailability [4]: 10%
- Activity (Candida albicans [5]): -1.9 log CFU
- Activity (Candida albicans [6]): -1.7 log CFU
- Activity (Candida albicans [7]): -2.6 log CFU
- MIC (Candida albicans [8]): 8 µg/mL

SMILES: CCC(N)(CC)CO[C@H]1[C@H](n2ncnc2C(N)=O)C[C@@]23COC[C@@]1(C)[C@@H]2CC[C@H]1C3=CC[C@@]2(C)[C@H](C(=O)O)[C@@](C)([C@H](C)C(C)C)CC[C@]12C
- IC50 [1]: 0.007 µg/mL
- MIC (Candida albicans [2]): 0.125 µg/mL (≈ 0.183 µM)
- minimal effective concentration (Aspergillus fumigatus [3]): < 0.03 µg/mL
- bioavailability [4]: 3%
- Activity (Candida albicans [5]): -0.2 log CFU
- Activity (Candida albicans [6]): -0.6 log CFU
- Activity (Candida albicans [7]): -1.9 log CFU
- MIC (Candida albicans [8]): 16 µg/mL

SMILES: CC(C)[C@@H](C)[C@@]1(C)CC[C@]2(C)[C@H]3CC[C@@H]4[C@@]5(COC[C@]4(C)[C@@H](OC[C@](C)(N)C(C)(C)C)[C@H](n4ncnc4C(N)=O)C5)C3=CC[C@@]2(C)[C@@H]1C(=O)O
- IC50 [1]: 0.003 µg/mL
- MIC (Candida albicans [2]): 0.06 µg/mL (≈ 0.0862 µM)
- minimal effective concentration (Aspergillus fumigatus [3]): < 0.03 µg/mL
- bioavailability [4]: 12%
- Activity (Candida albicans [5]): -1.5 log CFU
- Activity (Candida albicans [6]): -2.5 log CFU
- Activity (Candida albicans [7]): -2.2 log CFU
- MIC (Nakaseomyces glabratus): 0.125 µg/mL (≈ 0.18 µM)
- MIC (Pichia kudriavzevii): 1 µg/mL (≈ 1.44 µM)
- MIC (Candida tropicalis): 0.5 µg/mL (≈ 0.718 µM)
- MIC (Clavispora lusitaniae): 0.125 µg/mL (≈ 0.18 µM)
- MIC (Candida parapsilosis): 0.06 µg/mL (≈ 0.0862 µM)
- clearance [9]: 11 mL/min/kg
- half-life [10]: 5.1 h
- clearance [11]: 6 mL/min/kg
- half-life [12]: 5.5 h
- bioavailability [13]: 17%
- clearance [14]: 2 mL/min/kg
- half-life [15]: 12.3 h
- bioavailability [16]: 35%
- clearance [17]: 4 mL/min/kg
- half-life [18]: 8.5 h
- bioavailability [19]: 12%
- survival at 6.5 mg/kg (Candida albicans [20]): 100%
- survival at 12.5 mg/kg (Candida albicans [21]): 100%
- survival at 25 mg/kg (Candida albicans [22]): 80%
- survival at 12.5 mg/kg (Candida albicans [23]): 100%
- ED99 (Candida albicans [24]): 6.4 mg/kg
- survival at 12.5 mg/kg (Aspergillus fumigatus [25]): 60%
- survival at 6.25 mg/kg (Aspergillus fumigatus [26]): 40%
- survival at 3.125 mg/kg (Aspergillus fumigatus [27]): 10%
- survival at 1.56 mg/kg (Aspergillus fumigatus [28]): 0%
- MSD (Aspergillus fumigatus [29]): 14.4 days
- MSD (Aspergillus fumigatus [30]): 12.5 days
- MSD (Aspergillus fumigatus [31]): 7.3 days
- MSD (Aspergillus fumigatus [32]): 6.5 days
- MIC (Candida albicans [8]): 2 µg/mL

SMILES: CN[C@@](C)(CO[C@H]1[C@H](n2ncnc2C(N)=O)C[C@@]23COC[C@@]1(C)[C@@H]2CC[C@H]1C3=CC[C@@]2(C)[C@H](C(=O)O)[C@@](C)([C@H](C)C(C)C)CC[C@]12C)C(C)C
- IC50 [1]: 0.005 µg/mL
- MIC (Candida albicans [2]): 0.25 µg/mL (≈ 0.359 µM)
- minimal effective concentration (Aspergillus fumigatus [3]): < 0.03 µg/mL
- bioavailability [4]: 5%
- Activity (Candida albicans [5]): -0.4 log CFU
- Activity (Candida albicans [6]): -0.5 log CFU
- Activity (Candida albicans [7]): -1.2 log CFU
- MIC (Candida albicans [8]): 8 µg/mL
